From patent US20250144094A1 (Erasca, Inc., priority 2021, published 2025)

Target: Recombinant human ULK1 (1-649) (Homo sapiens (Human), UniProt O75385)
Assay: ULK1 ADP Glo kinase activity assay, new method (ULKtide peptide substrate)
Conditions: 25° C., 40 minutes, read-out: ULK1 biochemical IC50
Method in brief: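 GST-tagged human ULK1 (1-649) from Sf9 cells was reacted with ULKtide peptide and ATP for 40 min at 25 °C across 12-point compound dilutions from 10 μM. ADP formed was quantified by ADP-Glo luminescence; IC50 came from four-parameter fits relative to DMSO controls.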

Sequence of Recombinant human ULK1 (1-649) (O75385 1-649): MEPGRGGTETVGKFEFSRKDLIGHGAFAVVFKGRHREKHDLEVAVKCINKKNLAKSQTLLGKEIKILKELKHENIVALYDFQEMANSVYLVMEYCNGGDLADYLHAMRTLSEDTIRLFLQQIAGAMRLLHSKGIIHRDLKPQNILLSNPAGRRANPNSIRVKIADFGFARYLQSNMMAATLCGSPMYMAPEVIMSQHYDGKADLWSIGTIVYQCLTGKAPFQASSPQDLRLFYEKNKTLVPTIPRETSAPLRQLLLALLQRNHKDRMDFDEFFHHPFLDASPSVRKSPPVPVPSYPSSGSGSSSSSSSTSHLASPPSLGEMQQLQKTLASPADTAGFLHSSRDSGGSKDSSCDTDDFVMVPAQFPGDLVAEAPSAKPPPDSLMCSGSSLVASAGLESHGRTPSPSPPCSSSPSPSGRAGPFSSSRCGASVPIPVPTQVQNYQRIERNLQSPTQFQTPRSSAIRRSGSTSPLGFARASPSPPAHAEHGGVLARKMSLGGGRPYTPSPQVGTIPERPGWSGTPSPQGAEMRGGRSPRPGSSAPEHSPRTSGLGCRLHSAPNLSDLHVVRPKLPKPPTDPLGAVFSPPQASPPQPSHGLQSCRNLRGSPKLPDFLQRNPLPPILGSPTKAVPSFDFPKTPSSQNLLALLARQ

IC50, ≤ 5 nM:
CSc1cc2c(cc1Nc1ncc(C(F)(F)F)c(-c3cc4c(s3)C(=O)N(C3CC3)CCS4(=O)=O)n1)CCNC2 [Example 247, 4-cyclopropyl-7-(2-((7-(methylthio)-1,2,3,4-tetrahydroisoquinolin-6-yl)amino)-5-(trifluoromethyl)pyrimidin-4-yl)-3,4-dihydrothieno[2,3-f][1,4]thiazepin-5(2H)-one 1,1-dioxide]
CC(C)N1CCc2cc(Nc3ncc(C(F)(F)F)c(-c4cc5c(s4)C(=O)N(C4CC4)CCS5(=O)=O)n3)c(C3CC3)cc2C1 [Example 248, 4-cyclopropyl-7-(2-((7-cyclopropyl-2-isopropyl-1,2,3,4-tetrahydroisoquinolin-6-yl)amino)-5-(trifluoromethyl)pyrimidin-4-yl)-3,4-dihydrothieno[2,3-f][1,4]thiazepin-5(2H)-one 1,1-dioxide]
O=C1c2sc(-c3nc(Nc4cc5c(cc4C4CC4)CN(CCF)CC5)ncc3C(F)(F)F)cc2S(=O)(=O)CCN1C1CC1 [Example 249, 4-cyclopropyl-7-(2-((7-cyclopropyl-2-(2-fluoroethyl)-1,2,3,4-tetrahydroisoquinolin-6-yl)amino)-5-(trifluoromethyl)pyrimidin-4-yl)-3,4-dihydrothieno[2,3-f][1,4]thiazepin-5(2H)-one 1,1-dioxide]
CN1CCS(=O)(=O)c2cc(-c3nc(Nc4ccc(N5CCN(CC6CC6)CC5)cc4C4CC4)ncc3C(F)(F)F)sc2C1=O [Example 250, 7-(2-((2-cyclopropyl-4-(4-(cyclopropylmethyl)piperazin-1-yl)phenyl)amino)-5-(trifluoromethyl)pyrimidin-4-yl)-4-methyl-3,4-dihydrothieno[2,3-f][1,4]thiazepin-5(2H)-one 1,1-dioxide]
CN1CCC(c2ccc(Nc3ncc(C(F)(F)F)c(-c4cc5c(s4)C(=O)N(C4CC4)CCS5(=O)=O)n3)c(C3CC3)c2)CC1 [Example 252, 4-cyclopropyl-7-(2-((2-cyclopropyl-4-(1-methylpiperidin-4-yl)phenyl)amino)-5-(trifluoromethyl)pyrimidin-4-yl)-3,4-dihydrothieno[2,3-f][1,4]thiazepin-5(2H)-one 1,1-dioxide]
CCN1CCC(c2ccc(Nc3ncc(C(F)(F)F)c(-c4cc5c(s4)C(=O)N(C4CC4)CCS5(=O)=O)n3)c(C3CC3)c2)CC1 [Example 253, 4-cyclopropyl-7-(2-((2-cyclopropyl-4-(1-ethylpiperidin-4-yl)phenyl)amino)-5-(trifluoromethyl)pyrimidin-4-yl)-3,4-dihydrothieno[2,3-f][1,4]thiazepin-5(2H)-one 1,1-dioxide]
O=C1c2sc(-c3nc(Nc4ccc(C5CCN(CC6COC6)CC5)cc4C4CC4)ncc3C(F)(F)F)cc2S(=O)(=O)CCN1C1CC1 [Example 254, 4-cyclopropyl-7-(2-((2-cyclopropyl-4-(1-(oxetan-3-ylmethyl)piperidin-4-yl)phenyl)amino)-5-(trifluoromethyl)pyrimidin-4-yl)-3,4-dihydrothieno[2,3-f][1,4]thiazepin-5(2H)-one 1,1-dioxide]
CCN1CCN(c2ccc(Nc3ncc(C(F)(F)F)c(-c4cc5c(s4)C(=O)N(C4CC4)CCS5(=O)=O)n3)c(C3CC3)c2)CC1 [Example 255, 4-cyclopropyl-7-(2-((2-cyclopropyl-4-(4-ethylpiperazin-1-yl)phenyl)amino)-5-(trifluoromethyl)pyrimidin-4-yl)-3,4-dihydrothieno[2,3-f][1,4]thiazepin-5(2H)-one 1,1-dioxide]
O=C1c2sc(-c3nc(Nc4cc5c(cc4C4CC4)CN(CC4CC4)CC5)ncc3C(F)(F)F)cc2S(=O)(=O)CCN1C1COC1 [Example 256, 7-(2-((7-cyclopropyl-2-(cyclopropylmethyl)-1,2,3,4-tetrahydroisoquinolin-6-yl)amino)-5-(trifluoromethyl)pyrimidin-4-yl)-4-(oxetan-3-yl)-3,4-dihydrothieno[2,3-f][1,4]thiazepin-5(2H)-one 1,1-dioxide]
O=C1c2sc(-c3nc(Nc4cc5c(cc4C4CC4)CN(CC4COC4)CC5)ncc3C(F)(F)F)cc2S(=O)(=O)CCN1C1COC1 [Example 257, 7-(2-((7-cyclopropyl-2-(oxetan-3-ylmethyl)-1,2,3,4-tetrahydroisoquinolin-6-yl)amino)-5-(trifluoromethyl)pyrimidin-4-yl)-4-(oxetan-3-yl)-3,4-dihydrothieno[2,3-f][1,4]thiazepin-5(2H)-one 1,1-dioxide]
CCc1cc2c(cc1Nc1ncc(C(F)(F)F)c(-c3cc4c(s3)C(=O)N(CC(F)(F)F)CCS4(=O)=O)n1)CNCC2 [Example 258, 7-(2-((6-ethyl-1,2,3,4-tetrahydroisoquinolin-7-yl)amino)-5-(trifluoromethyl)pyrimidin-4-yl)-4-(2,2,2-trifluoroethyl)-3,4-dihydrothieno[2,3-f][1,4]thiazepin-5(2H)-one 1,1-dioxide]
Cc1cnc(Nc2cc3c(cc2Cl)CNCC3)nc1-c1cc2c(s1)C(=O)N(C)CCS2(=O)=O [Example 259, 7-(2-((7-chloro-1,2,3,4-tetrahydroisoquinolin-6-yl)amino)-5-methylpyrimidin-4-yl)-4-methyl-3,4-dihydrothieno[2,3-f][1,4]thiazepin-5(2H)-one 1,1-dioxide]
Cc1cnc(Nc2cc3c(cc2C2CC2)CNCC3)nc1-c1cc2c(s1)C(=O)N(C1CC1)CCS2(=O)=O [Example 260, 4-cyclopropyl-7-(2-((7-cyclopropyl-1,2,3,4-tetrahydroisoquinolin-6-yl)amino)-5-methylpyrimidin-4-yl)-3,4-dihydrothieno[2,3-f][1,4]thiazepin-5(2H)-one 1,1-dioxide]
O=C1c2sc(-c3nc(Nc4cc5c(cc4C4CC4)CNCC5)ncc3C3CC3)cc2S(=O)(=O)CCN1C1CC1 [Example 261, 4-cyclopropyl-7-(5-cyclopropyl-2-((7-cyclopropyl-1,2,3,4-tetrahydroisoquinolin-6-yl)amino)pyrimidin-4-yl)-3,4-dihydrothieno[2,3-f][1,4]thiazepin-5(2H)-one 1,1-dioxide]
CCc1cc2c(cc1Nc1ncc(C(F)(F)F)c(-c3cc4c(s3)C(=O)N(C3COC3)CCS4(=O)=O)n1)CNCC2 [Example 262, 7-(2-((6-ethyl-1,2,3,4-tetrahydroisoquinolin-7-yl)amino)-5-(trifluoromethyl)pyrimidin-4-yl)-4-(oxetan-3-yl)-3,4-dihydrothieno[2,3-f][1,4]thiazepin-5(2H)-one 1,1-dioxide]
CC(C)c1cc2c(cc1Nc1ncc(C(F)(F)F)c(-c3cc4c(s3)C(=O)N(C3CC3)CCS4(=O)=O)n1)CCNC2 [Example 263, 4-cyclopropyl-7-(2-((7-isopropyl-1,2,3,4-tetrahydroisoquinolin-6-yl)amino)-5-(trifluoromethyl)pyrimidin-4-yl)-3,4-dihydrothieno[2,3-f][1,4]thiazepin-5(2H)-one 1,1-dioxide]
CCc1cc(N2CCNCC2)ccc1Nc1ncc(C(F)(F)F)c(-c2cc3c(s2)C(=O)N(C2CC2)CCS3(=O)=O)n1 [Example 264, 4-cyclopropyl-7-(2-((2-ethyl-4-(piperazin-1-yl)phenyl)amino)-5-(trifluoromethyl)pyrimidin-4-yl)-3,4-dihydrothieno[2,3-f][1,4]thiazepin-5(2H)-one 1,1-dioxide]
CCc1cc(N2CCN(CC3CC3)CC2)ccc1Nc1ncc(C(F)(F)F)c(-c2cc3c(s2)C(=O)N(C2CC2)CCS3(=O)=O)n1 [Example 265, 4-cyclopropyl-7-(2-((4-(4-(cyclopropylmethyl)piperazin-1-yl)-2-ethylphenyl)amino)-5-(trifluoromethyl)pyrimidin-4-yl)-3,4-dihydrothieno[2,3-f][1,4]thiazepin-5(2H)-one 1,1-dioxide]
CCc1cc(N2CCN(CC3COC3)CC2)ccc1Nc1ncc(C(F)(F)F)c(-c2cc3c(s2)C(=O)N(C2CC2)CCS3(=O)=O)n1 [Example 266, 4-cyclopropyl-7-(2-((2-ethyl-4-(4-(oxetan-3-ylmethyl)piperazin-1-yl)phenyl)amino)-5-(trifluoromethyl)pyrimidin-4-yl)-3,4-dihydrothieno[2,3-f][1,4]thiazepin-5(2H)-one 1,1-dioxide]
CCN1CCc2cc(Nc3ncc(C(F)(F)F)c(-c4cc5c(s4)C(=O)N(C4CC4)CCS5(=O)=O)n3)c(C(C)C)cc2C1 [Example 267, 4-cyclopropyl-7-(2-((2-ethyl-7-isopropyl-1,2,3,4-tetrahydroisoquinolin-6-yl)amino)-5-(trifluoromethyl)pyrimidin-4-yl)-3,4-dihydrothieno[2,3-f][1,4]thiazepin-5(2H)-one 1,1-dioxide]
CC(C)c1cc2c(cc1Nc1ncc(C(F)(F)F)c(-c3cc4c(s3)C(=O)N(C3CC3)CCS4(=O)=O)n1)CCN(CC1CC1)C2 [Example 268, 4-cyclopropyl-7-(2-((2-(cyclopropylmethyl)-7-isopropyl-1,2,3,4-tetrahydroisoquinolin-6-yl)amino)-5-(trifluoromethyl)pyrimidin-4-yl)-3,4-dihydrothieno[2,3-f][1,4]thiazepin-5(2H)-one 1,1-dioxide]
CC(C)c1cc2c(cc1Nc1ncc(C(F)(F)F)c(-c3cc4c(s3)C(=O)N(C3CC3)CCS4(=O)=O)n1)CCN(CC1COC1)C2 [Example 269, 4-cyclopropyl-7-(2-((7-isopropyl-2-(oxetan-3-ylmethyl)-1,2,3,4-tetrahydroisoquinolin-6-yl)amino)-5-(trifluoromethyl)pyrimidin-4-yl)-3,4-dihydrothieno[2,3-f][1,4]thiazepin-5(2H)-one 1,1-dioxide]
O=C1c2sc(-c3nc(Nc4cc5c(cc4C4CC4)CCNC5)ncc3C(F)(F)F)cc2S(=O)(=O)CCN1C1COC1 [Example 270, 7-(2-((6-cyclopropyl-1,2,3,4-tetrahydroisoquinolin-7-yl)amino)-5-(trifluoromethyl)pyrimidin-4-yl)-4-(oxetan-3-yl)-3,4-dihydrothieno[2,3-f][1,4]thiazepin-5(2H)-one 1,1-dioxide]
